Experiments:
Format in all cases: cell-based
[1] = system: 3T3-L1 adipocytes; test: Metabolic flux analysis (stoichiometric model) of adipocyte intermediary metabolism; conditions: day 12 post-induction
Method: (§1) 3T3-L1 preadipocytes were plated onto 24-well plates and expanded in preadipocyte growth medium consisting of DMEM supplemented with calf serum (10% v/v), penicillin and streptomycin. Medium was replenished every other day. Two days post-confluence, the cells were induced to differentiate using an adipogenic cocktail (1 μg/ml insulin, 0.5 mM isobutylmethylxanthine, and 1 μM dexamethasone) added to a basal medium (DMEM with 10% fetal bovine serum and penicillin/streptomycin). After 48 hrs, the first medium was replaced with a second induction medium consisting of the basal adipocyte medium supplemented with only insulin. […] This basal medium was replenished every other day during the remainder of the culture experiments.
A stoichiometric model of adipocyte central carbon metabolism was constructed as described previously (Si Y, Yoon J, Lee K. American journal of physiology 2007; 292:E1637-46). The model consisted of the major pathways of central carbon metabolism (Table 1). Intracellular fluxes were estimated by solving a constrained non-linear optimization problem with stoichiometric and thermodynamic constraints (Nolan R P, Fenley A P, Lee K. Metab Eng 2006; 8:30-45).

[2] = system: 3T3-L1 adipocytes; test: Metabolite assays (TG, FFA, glucose, lactate, glycerol) on cell lysates and spent medium; conditions: 20 mM oxamate, day 12 post-induction
Method: as §1
(§2) Metabolite measurements were performed both on cell lysates and spent medium samples as described previously (Si Y, Yoon J, Lee K. American journal of physiology 2007; 292:E1637-46). Cells were lysed in situ with an 0.1% SDS buffer and sonicated. Immediately after collection, the spent medium samples were cleaned of cell debris by a brief centrifugation step. Free glycerol, TG and free fatty acids (FFAs) were measured using enzymatic assay kits (SIGMA™). Glucose and lactate concentrations were measured using the methods of Trinder (Trinder P. J Clin Pathol 1969; 22:158-61) and Loomis (Loomis M E. J Lab Clin Med 1961; 57:966-9), respectively. Amino acids were quantified by HPLC using fluorescence-based detection following pre-column derivatization of primary or secondary amines with 6-aminoquinolyl-N-hydroxysuccinimidyl-carbamate (Cohen S A, De Antonis K M. J Chromatogr A 1994; 661:25-34). All metabolite data were normalized by the corresponding cell sample DNA content, which was determined with a fluorescence-based assay using the Hoechst dye.

[3] = system: 3T3-L1 adipocytes; test: Amino acid uptake or output of adipocytes (HPLC of spent medium); conditions: 20 mM OXA; day 12 post-induction; positive value = uptake
Method: as §1, §2

NC(=O)C(=O)O [oxamate]
Flux RXN 1 Glycolysis: Glucose + ATP = Glucose 6-P + ADP ([1]; OXA 20 mM): 212.3 ± 15.3 mmol/g-DNA/2 days
Flux RXN 2 Glycolysis: Glucose 6-P = Fructose 6-P ([1]; OXA 20 mM): 205.0 ± 14.2 mmol/g-DNA/2 days
Flux RXN 3 Glycolysis: Fructose 6-P + ATP = Glyceraldehyde 3-P + Glycerone-P + ADP ([1]; OXA 20 mM): 209.9 ± 14.8 mmol/g-DNA/2 days
Flux RXN 4 Glycolysis: Glycerone-P = Glyceraldehyde 3-P ([1]; OXA 20 mM): 187.8 ± 13.9 mmol/g-DNA/2 days
Flux RXN 5 Glycolysis: Glyceraldehyde 3-P + NAD+ + ADP + Pi = P-Enolpyruvate + ATP + H2O ([1]; OXA 20 mM): 400.1 ± 28.6 mmol/g-DNA/2 days
Flux RXN 6 Glycolysis: P-Enolpyruvate + ADP + H+ = Pyruvate + ATP ([1]; OXA 20 mM): 463.5 ± 35.6 mmol/g-DNA/2 days
Flux RXN 7 Glycolysis: Pyruvate + NADH + H+ = Lactate + NAD+ ([1]; OXA 20 mM): 119.2 ± 9.1 mmol/g-DNA/2 days
Flux RXN 8 Pentose phosphate pathway: Glucose 6-P + 2 NADP+ + H2O = Ribulose 5-P + CO2 + 2 NADPH + 2 H+ ([1]; OXA 20 mM): 7.3 ± 4.6 mmol/g-DNA/2 days
Flux RXN 9 Pentose phosphate pathway: 3 Ribulose 5-P = 2 Fructose 6-P + Glyceraldehyde 3-P ([1]; OXA 20 mM): 2.4 ± 1.5 mmol/g-DNA/2 days
Flux RXN 10 TCA cycle (mitochondria) (PDC) ([1]; OXA 20 mM): 290.4 ± 25.6 mmol/g-DNA/2 days
Flux RXN 11 TCA cycle (mitochondria) (PC) ([1]; OXA 20 mM): 109.1 ± 31.7 mmol/g-DNA/2 days
Flux RXN 12 TCA cycle (mitochondria) ([1]; OXA 20 mM): 185.0 ± 19.7 mmol/g-DNA/2 days
Flux RXN 13 TCA cycle (mitochondria) ([1]; OXA 20 mM): 226.7 ± 26.2 mmol/g-DNA/2 days
Flux RXN 14 TCA cycle (mitochondria) ([1]; OXA 20 mM): 236.0 ± 26.3 mmol/g-DNA/2 days
Flux RXN 15 TCA cycle (mitochondria) ([1]; OXA 20 mM): 236.0 ± 26.3 mmol/g-DNA/2 days
Flux RXN 16 TCA cycle (mitochondria) ([1]; OXA 20 mM): 181.2 ± 40.8 mmol/g-DNA/2 days
Flux RXN 17 TCA cycle: Citrate + CoA + ATP = Acetyl-CoA + Oxaloacetate + ADP + Pi ([1]; OXA 20 mM): 63.7 ± 12.9 mmol/g-DNA/2 days
Flux RXN 18 TCA cycle: Oxaloacetate + NADH + H+ = Malate + NAD+ ([1]; OXA 20 mM): 0.3 ± 0.8 mmol/g-DNA/2 days
Flux RXN 19 TCA cycle: Malate + NADP+ = Pyruvate + CO2 + NADPH ([1]; OXA 20 mM): 55.2 ± 20.8 mmol/g-DNA/2 days
Flux RXN 20 TCA cycle: Citrate + NADP+ = 2-Oxoglutarate + CO2 + NADPH + H+ ([1]; OXA 20 mM): 41.6 ± 9.1 mmol/g-DNA/2 days
Flux RXN 21 TCA cycle: Oxaloacetate + ATP = P-Enolpyruvate + CO2 + ADP ([1]; OXA 20 mM): 63.4 ± 12.9 mmol/g-DNA/2 days
Flux RXN 22 Oxidative phosphorylation (NADH + 0.5 O2) ([1]; OXA 20 mM): 770.4 ± 108.2 mmol/g-DNA/2 days
Flux RXN 23 Oxidative phosphorylation (FADH2 + 0.5 O2) ([1]; OXA 20 mM): 252.2 ± 26.4 mmol/g-DNA/2 days
Flux RXN 24 Palmitate biosynthesis ([1]; OXA 20 mM): 8.0 ± 1.6 mmol/g-DNA/2 days
Flux RXN 25 Tripalmitoylglycerol biosynthesis: Glycerone-P + 3 Palmitate to Tripalmitoylglycerol ([1]; OXA 20 mM): 22.1 ± 4.8 mmol/g-DNA/2 days
Flux RXN 26 Tripalmitoylglycerol + 3 H2O = Glycerol + 3 Palmitate ([1]; OXA 20 mM): 19.8 ± 4.4 mmol/g-DNA/2 days
Flux RXN 27 Tripalmitoylglycerol accumulation ([1]; OXA 20 mM): 2.3 ± 0.5 mmol/g-DNA/2 days
Flux RXN 28 Metabolism of ketone bodies ([1]; OXA 20 mM): 6.4 ± 0.3 mmol/g-DNA/2 days
Flux RXN 29 Metabolism of ketone bodies ([1]; OXA 20 mM): 0.0 ± 0.0 mmol/g-DNA/2 days
Flux RXN 30 Metabolism of ketone bodies (to 3-Hydroxybutyrate) ([1]; OXA 20 mM): 10.8 ± 2.2 mmol/g-DNA/2 days
Flux RXN 31 Amino acid metabolism: Pyruvate + NH4+ + NADPH = Alanine ([1]; OXA 20 mM): 0.0 ± 0.0 mmol/g-DNA/2 days
Flux RXN 32 Amino acid metabolism: Aspartate + NH4+ = Asparagine ([1]; OXA 20 mM): 0.6 ± 0.1 mmol/g-DNA/2 days
Flux RXN 33 Amino acid metabolism: Aspartate = Oxaloacetate + NH4+ + NADH ([1]; OXA 20 mM): 0.0 ± 0.0 mmol/g-DNA/2 days
Flux RXN 34 Amino acid metabolism: Cysteine = Pyruvate + NH4+ + NADH ([1]; OXA 20 mM): 0.0 ± 0.0 mmol/g-DNA/2 days
Flux RXN 35 Amino acid metabolism: Glutamate = 2-Oxoglutarate + NH4+ + NADH ([1]; OXA 20 mM): 0.0 ± 0.0 mmol/g-DNA/2 days
Flux RXN 36 Amino acid metabolism: Glutamate + NH4+ + ATP = Glutamine ([1]; OXA 20 mM): 8.0 ± 1.0 mmol/g-DNA/2 days
Flux RXN 37 Amino acid metabolism: Serine + THF = Glycine ([1]; OXA 20 mM): 5.0 ± 0.3 mmol/g-DNA/2 days
Flux RXN 38 Amino acid metabolism: Histidine + THF = Glutamate + NH4+ ([1]; OXA 20 mM): 4.1 ± 0.5 mmol/g-DNA/2 days
Flux RXN 39 Amino acid metabolism: Isoleucine + 2 CoA ([1]; OXA 20 mM): 6.1 ± 0.3 mmol/g-DNA/2 days
Flux RXN 40 Amino acid metabolism: Leucine + CoA + CO2 + ATP ([1]; OXA 20 mM): 6.8 ± 0.3 mmol/g-DNA/2 days
Flux RXN 41 Amino acid metabolism: Lysine = 2-Oxoadipate + 2 NH4+ + 3 NADH ([1]; OXA 20 mM): 0.0 ± 0.0 mmol/g-DNA/2 days
Flux RXN 42 Amino acid metabolism: 2-Oxoadipate + CoA ([1]; OXA 20 mM): 0.0 ± 0.0 mmol/g-DNA/2 days
Flux RXN 43 Amino acid metabolism: Methionine + Serine + ATP + CoA + THF ([1]; OXA 20 mM): 0.0 ± 0.0 mmol/g-DNA/2 days
Flux RXN 44 Amino acid metabolism: Phenylalanine + O2 + NADH = Tyrosine ([1]; OXA 20 mM): 0.0 ± 0.0 mmol/g-DNA/2 days
Flux RXN 45 Amino acid metabolism: Glutamate + ATP + 2 NADPH = Proline ([1]; OXA 20 mM): 0.0 ± 0.0 mmol/g-DNA/2 days
Flux RXN 46 Amino acid metabolism: Serine = Pyruvate + NH4+ ([1]; OXA 20 mM): 0.0 ± 0.0 mmol/g-DNA/2 days
Flux RXN 47 Amino acid metabolism: Threonine + CoA to Glycine ([1]; OXA 20 mM): 0.0 ± 0.0 mmol/g-DNA/2 days
Flux RXN 48 Amino acid metabolism: Tryptophan + 3 O2 + NADPH = 2-Oxoadipate + Alanine + CO2 + NH4+ ([1]; OXA 20 mM): 0.0 ± 0.0 mmol/g-DNA/2 days
Flux RXN 49 Amino acid metabolism: Tyrosine + 2 O2 ([1]; OXA 20 mM): 0.0 ± 0.0 mmol/g-DNA/2 days
Flux RXN 50 Amino acid metabolism: Valine + CoA ([1]; OXA 20 mM): 3.3 ± 0.2 mmol/g-DNA/2 days
Flux RXN 51 Plasma exchange: Palmitate ([1]; OXA 20 mM): 1.0 ± 0.1 mmol/g-DNA/2 days
Flux RXN 52 Plasma exchange: Acetoacetate ([1]; OXA 20 mM): 2.4 ± 1.9 mmol/g-DNA/2 days
Flux RXN 53 Plasma exchange: Alanine ([1]; OXA 20 mM): 0.0 ± 0.0 mmol/g-DNA/2 days
Flux RXN 54 Plasma exchange: Aspartate ([1]; OXA 20 mM): 0.6 ± 0.1 mmol/g-DNA/2 days
Flux RXN 55 Plasma exchange: Cysteine ([1]; OXA 20 mM): 0.0 ± 0.0 mmol/g-DNA/2 days
Flux RXN 56 Plasma exchange: Glutamate ([1]; OXA 20 mM): 3.9 ± 0.5 mmol/g-DNA/2 days
Flux RXN 57 Plasma exchange: Glycine ([1]; OXA 20 mM): 5.0 ± 0.3 mmol/g-DNA/2 days
Flux RXN 58 Plasma exchange: Serine ([1]; OXA 20 mM): 5.0 ± 0.3 mmol/g-DNA/2 days
Flux RXN 59 Plasma exchange: Tyrosine ([1]; OXA 20 mM): 0.0 ± 0.0 mmol/g-DNA/2 days
Flux RXN 60 Plasma exchange: O2 (calculated oxygen uptake rate) ([1]; OXA 20 mM): 511.3 ± 67.1 mmol/g-DNA/2 days
Flux RXN 61 Plasma exchange: CO2 ([1]; OXA 20 mM): 756.9 ± 75.2 mmol/g-DNA/2 days
Flux RXN 62 Plasma exchange: NH4+ ([1]; OXA 20 mM): 11.7 ± 0.5 mmol/g-DNA/2 days
Flux RXN 63 Mitochondrial exchange: Pyruvate ([1]; OXA 20 mM): 399.5 ± 40.8 mmol/g-DNA/2 days
Flux RXN 64 Mitochondrial exchange: Malate in, Citrate out ([1]; OXA 20 mM): 105.3 ± 13.9 mmol/g-DNA/2 days
Flux RXN 65 Mitochondrial exchange: 2-Oxoglutarate in, Malate out ([1]; OXA 20 mM): 41.6 ± 9.1 mmol/g-DNA/2 days
Flux RXN 66 Mitochondrial exchange: Pi in, Malate out ([1]; OXA 20 mM): 54.8 ± 20.5 mmol/g-DNA/2 days
Decrease of PC flux ([1]; oxamate): 41%
Decrease of citrate transport out of the mitochondria ([1]; oxamate): 44%
Decrease of de novo fatty acid synthesis ([1]; oxamate): 49%
Decrease of flux through glycolysis ([1]; oxamate): 17˜26%
Decrease of flux through the pentose phosphate pathway (PPP) ([1]; oxamate): 82%
Decrease of pyruvate flux entering the TCA cycle ([1]; oxamate): 21%
Increase of lipolysis ([1]; oxamate): 131%
Increase of triglyceride synthesis ([1]; oxamate): 65%
Reduction of net triglyceride accumulation ([1]; oxamate): 52%
Glycerol output raised [2]: 1.3 fold
Reduction of glucose uptake [2]: 20%
inhibition at 20000 µM ([2]; Mus musculus, 3T3-L1, vs untreated control, read-out: Inhibition of lactate output): 40%
ALA uptake or output [3]: 0.6 ± 0.0 mmol/g-DNA/2 days
ASN uptake or output [3]: −1.1 ± 0.2 mmol/g-DNA/2 days
ASP uptake or output [3]: 0.0 ± 0.0 mmol/g-DNA/2 days
GLN uptake or output [3]: −12.0 ± 1.5 mmol/g-DNA/2 days
GLU uptake or output [3]: 0.4 ± 0.0 mmol/g-DNA/2 days
GLY uptake or output [3]: −5.9 ± 0.4 mmol/g-DNA/2 days
HIS uptake or output [3]: −0.2 ± 0.1 mmol/g-DNA/2 days
ILE uptake or output [3]: 6.1 ± 0.3 mmol/g-DNA/2 days
LEU uptake or output [3]: 6.8 ± 0.3 mmol/g-DNA/2 days
LYS uptake or output [3]: −2.0 ± 0.3 mmol/g-DNA/2 days
MET uptake or output [3]: 0.0 ± 0.0 mmol/g-DNA/2 days
PHE uptake or output [3]: −0.3 ± 0.1 mmol/g-DNA/2 days
PRO uptake or output [3]: −0.5 ± 0.0^ mmol/g-DNA/2 days
SER uptake or output [3]: 4.0 ± 0.2 mmol/g-DNA/2 days
THR uptake or output [3]: −1.4 ± 0.3^ mmol/g-DNA/2 days
TYR uptake or output [3]: −0.3 ± 0.1 mmol/g-DNA/2 days
VAL uptake or output [3]: 3.3 ± 0.2 mmol/g-DNA/2 days

From patent publication US20110158980A1, “METHODS TO TREAT AND SCREEN FOR AGENTS TO TREAT OBESITY” (TRUSTEES OF TUFTS COLLEGE, priority 2008, published 2011)
